Results as given in the NIST ThermoML archive (doi:10.1021/je034224j).

Test: xn = mol fraction of the nth substance listed

CCOC(C)=O [ethyl acetate] + O=C=O
Settings | mass density [kg/m3]
333 K, 5360 kPa, Gas, x2 = 0.1231 | 987.7
333 K, 5360 kPa, Liquid, x2 = 0.5727 | 865.7
333 K, 5960 kPa, Gas, x2 = 0.1544 | 986
333 K, 5960 kPa, Liquid, x2 = 0.6283 | 836.3
333 K, 6470 kPa, Gas, x2 = 0.1698 | 986.1
333 K, 6470 kPa, Liquid, x2 = 0.6584 | 814.8
333 K, 7570 kPa, Gas, x2 = 0.2068 | 978.7
333 K, 7570 kPa, Liquid, x2 = 0.7586 | 785.3
333 K, 8460 kPa, Gas, x2 = 0.2731 | 973.6
333 K, 8460 kPa, Liquid, x2 = 0.8057 | 746.7
333 K, 8970 kPa, Gas, x2 = 0.3708 | 969.6
333 K, 8970 kPa, Liquid, x2 = 0.8421 | 720.4
353 K, 3960 kPa, Gas, x2 = 0.0666 | 980.2
353 K, 3960 kPa, Liquid, x2 = 0.5532 | 923.2
353 K, 5060 kPa, Gas, x2 = 0.0935 | 978.3
353 K, 5060 kPa, Liquid, x2 = 0.5767 | 920.9
353 K, 6270 kPa, Gas, x2 = 0.127 | 973.9
353 K, 6270 kPa, Liquid, x2 = 0.6075 | 919.6
353 K, 7470 kPa, Gas, x2 = 0.1822 | 967.8
353 K, 7470 kPa, Liquid, x2 = 0.627 | 901.7
353 K, 8470 kPa, Gas, x2 = 0.22 | 966.1
353 K, 8470 kPa, Liquid, x2 = 0.6668 | 854
353 K, 9470 kPa, Gas, x2 = 0.2634 | 956
353 K, 9470 kPa, Liquid, x2 = 0.7587 | 746.5
373 K, 5690 kPa, Gas, x2 = 0.0819 | 964.1
373 K, 5690 kPa, Liquid, x2 = 0.4697 | 758.8
373 K, 6460 kPa, Gas, x2 = 0.1202 | 961.2
373 K, 6460 kPa, Liquid, x2 = 0.5001 | 784.3
373 K, 7960 kPa, Gas, x2 = 0.1682 | 955.5
373 K, 7960 kPa, Liquid, x2 = 0.5505 | 790.5
373 K, 9470 kPa, Gas, x2 = 0.2401 | 944
373 K, 9470 kPa, Liquid, x2 = 0.6046 | 781.7
373 K, 10570 kPa, Gas, x2 = 0.352 | 923.9
373 K, 10570 kPa, Liquid, x2 = 0.6715 | 788.4
373 K, 11370 kPa, Gas, x2 = 0.4692 | 913.5
373 K, 11370 kPa, Liquid, x2 = 0.7259 | 780.3
393 K, 5060 kPa, Gas, x2 = 0.055 | 951.6
393 K, 5060 kPa, Liquid, x2 = 0.455 | 713.7
393 K, 5460 kPa, Gas, x2 = 0.0849 | 941.9
393 K, 5460 kPa, Liquid, x2 = 0.4831 | 744.8
393 K, 6970 kPa, Gas, x2 = 0.1218 | 932.1
393 K, 6970 kPa, Liquid, x2 = 0.5129 | 771.1
393 K, 8480 kPa, Gas, x2 = 0.1766 | 917.3
393 K, 8480 kPa, Liquid, x2 = 0.545 | 804.3
393 K, 9970 kPa, Gas, x2 = 0.255 | 895.6
393 K, 9970 kPa, Liquid, x2 = 0.5744 | 791.8
393 K, 11470 kPa, Gas, x2 = 0.4 | 856.8
393 K, 11470 kPa, Liquid, x2 = 0.6237 | 755.8
393 K, 11970 kPa, Gas, x2 = 0.6025 | 846.6
393 K, 11970 kPa, Liquid, x2 = 0.6629 | 719.7

CCOC(=O)CC [ethyl propanoate] + O=C=O
Liquid
Settings | mass density [kg/m3]
313 K, 2960 kPa, x2 = 0.5818 | 971
313 K, 3960 kPa, x2 = 0.6881 | 973.6
313 K, 4460 kPa, x2 = 0.7509 | 965.9
313 K, 4960 kPa, x2 = 0.799 | 960.9
313 K, 5460 kPa, x2 = 0.8301 | 950.9
313 K, 5970 kPa, x2 = 0.8675 | 923.3
313 K, 6270 kPa, x2 = 0.8871 | 902.4
333 K, 2960 kPa, x2 = 0.4093 | 900.2
333 K, 3460 kPa, x2 = 0.4733 | 905.3
333 K, 4460 kPa, x2 = 0.5479 | 902.9
333 K, 5460 kPa, x2 = 0.6214 | 895.5
333 K, 5960 kPa, x2 = 0.6608 | 886.6
333 K, 6660 kPa, x2 = 0.7224 | 868.7
333 K, 7260 kPa, x2 = 0.7819 | 842.2
353 K, 2960 kPa, x2 = 0.3557 | 864.4
353 K, 3860 kPa, x2 = 0.4093 | 864.9
353 K, 4960 kPa, x2 = 0.4746 | 869.1
353 K, 5960 kPa, x2 = 0.5459 | 855.1
353 K, 6960 kPa, x2 = 0.6173 | 854
353 K, 7970 kPa, x2 = 0.6847 | 850.5
353 K, 8870 kPa, x2 = 0.7529 | 824.3
373 K, 2960 kPa, x2 = 0.3282 | 817
373 K, 4460 kPa, x2 = 0.3961 | 812.4
373 K, 5960 kPa, x2 = 0.4965 | 802.1
373 K, 7470 kPa, x2 = 0.5422 | 788.2
373 K, 8970 kPa, x2 = 0.6332 | 766.7
373 K, 10570 kPa, x2 = 0.7127 | 735.7
373 K, 10970 kPa, x2 = 0.7391 | 720.9
